Measurements: patent US6599713B1, “Method for quantitating leukocyte count in whole blood sample” (priority 1999, dated 2003)

What was measured:
[1] = test system: white blood cells contained in the whole blood; assay: Time required for lyzing white blood cells: MPO released from whole blood by surfactant, MPO enzyme immunoassay kit (Example 1); format: cell-based, human; settings: room temperature; for MPO concentration of whole blood: 100 μl of 11% solution per 1 ml healthy human whole blood, mean ± SD of 3
Experimental: 10 ml of healthy human whole blood was collected in a test tube containing 10 mg of EDTA-2K (manufactured and sold by Dojin Laboratories, Japan) and the resultant EDTA-containing whole blood sample was stirred well, and then 1 ml of the whole blood sample was taken out from the test tube. To the 1 ml whole blood sample taken out from the test tube was added 100 μl of an aqueous 11% solution of Triton™ X-100 (manufactured and sold under the brand of SIGMA™, U.S.A.), and the resultant mixture was stirred well and then allowed to stand at room temperature for 1 minute to obtain a (whole blood sample/surfactant) mixture containing the lyzed white blood cells. Substantially the same operation as mentioned above was repeated except that the standing time at room temperature was changed to 5 minutes, 30 minutes and 60 minutes to thereby lyze the white blood cells contained in the whole blood.
After the above-mentioned period of time, each of the obtained (whole blood sample/surfactant) mixtures containing the lyzed white blood cells was individually diluted 2,000-fold with a sample diluting buffer (20 mM phosphate buffer (pH 7.4) containing 0.1% bovine serum albumin and 0.2% sodium azide), which buffer is attached to BIOXYTEC™ MPO Enzyme Immunoassay kit (manufactured and sold by OXIS International, Inc., U.S.A.), and the resultant diluted mixture was taken as a sample for the measurement of myeloperoxidase (MPO).
With respect to the above-mentioned sample for the measurement of MPO and a standard MPO solution (which is obtained by dissolving commercially available MPO in the above mentioned buffer), the measurement of the MPO concentration was performed using BIOXYTEC™ MPO Enzyme Immunoassay kit (manufactured and sold by OXIS International, Inc., U.S.A.) in accordance with the instruction manual attached thereto.
Specifically, with respect to the measurement of the MPO concentration of the above-mentioned sample, MPO (manufactured and sold by Elastin Products Co., INC., U.S.A.) was added to the sample so that the final concentration of the added MPO became 5 ng/ml or 10 ng/ml, and the resultant mixture was measured with respect to the MPO concentration. From the obtained value of MPO concentration, a calibration curve for each sample was obtained. The obtained calibration curve was corrected, based on its relationship with a calibration curve obtained with respect to the standard MPO solution, and the corrected calibration curve of each sample was used to determine the MPO concentration of the whole blood. The measurement was conducted 3 times, and a mean value±standard deviation was obtained.

[2] = test system: white blood cells contained in the whole blood; assay: Concentration of surfactant and release amount of MPO in whole blood, ELISA (Example 2); format: cell-based, human; settings: 60 minutes on ice, mean ± SD of 3
Experimental: 10 ml of healthy human whole blood was collected and immediately mixed with 10 mg of EDTA-2K (manufactured and sold by Dojin Laboratories, Japan), and the resultant EDTA-containing whole blood sample was subjected to the below-described various measurements within 1 hour from the blood collection.
500 μl of the blood was put in a 2-ml Eppendorf tube, and 500 μl of an aqueous surfactant solution having a surfactant concentration of 0.1, 0.2, 0.4, 0.6, 1, 2, 4, 10 or 20% (w/v) was added to the tube, and the resultant mixture was stirred for 2 seconds by a Vortex mixer. Subsequently, the mixture was allowed to stand for 60 minutes on ice to thereby lyze the white blood cells. […] After the lysis of the white blood cells, 100 μl of the mixture was taken out and added to 900 μl of a PBS solution containing dissolved therein 1% BSA (trade name: “Sigma fraction V”, manufactured and sold under the brand of SIGMA™, U.S.A.). The resultant mixture was stirred by a Vortex mixer, and then 10 μl of the mixture was taken out and diluted 2,000-fold with 1% BSA/PBS solution. The resultant diluted mixture was subjected to a measurement by ELISA.
The outline of the ELISA is as follows. A 5 μg/ml PBS solution of a rabbit anti-human myeloperoxidase antibody (manufactured and sold by Calbiochem-Novabiochem Corporation, U.S.A.)(hereinafter, frequently referred to as “anti-MPO antibody”) was put into the wells of a Nunc Immuno Plate (manufactured and sold by Nalge Nunc International, Denmark) in an amount of 100 μl per well. The solution in each well was sealed and subjected to a reaction for 18 hours at 4° C. thereby immobilizing the primary antibody. The wells were washed with a washing solution (0.05% Tween™ 20/PBS) and then subjected to blocking for 1 hour at room temperature by using 200 μl of a blocking solution (1% BSA/PBS), and then washed twice with the washing solution. Then, the above-obtained diluted mixture (blood sample which had been treated with a surfactant and then diluted) was put in the wells in an amount of 100 μl per well, and subjected to a reaction for 2 hours at room temperature. Then, the wells were washed 3 times with the washing solution, and a 5 μg/ml solution of an anti-MPO antibody labeled with horseradish peroxidase (hereinafter referred to as “HRP”) was put in the wells in an amount of 100 μl per well, and subjected to a reaction for 1 hour at room temperature. As the above-mentioned HRP-labeled anti-MPO antibody, an anti-human MPO antibody (manufactured and sold by Calbiochem-Novabiochem Corporation, U.S.A.) which had been labeled with HRP Grade IV (manufactured and sold under the brand of SIGMA™, U.S.A.) was employed. The labeling was performed by the method described in Analytical Biochemistry, 132, 68-73 (1983). The wells were washed 5 times with the washing solution, and 100 1 μl of a just-prepared TMB solution (manufactured and sold by Kirkegaad & Perry Laboratories, U.S.A.) was added thereto to effect a color reaction. 2 Minutes after the start of the color reaction, 100 μl of a 1 N sulfuric acid solution (manufactured and sold by Nacalai Tesque, Inc., Japan) was added to the wells to thereby terminate the reaction. Then, the absorbance at 450 nm was measured by means of a plate reader (manufactured and sold by Bio-Rad Laboratories, U.S.A.). The measurement was conducted 3 times, and a mean value±standard deviation was obtained.

α-[4-(1,1,3,3,-Tetramethylbutyl)phenyl]-ω-hydroxypoly(oxy-1,2-ethanediyl) [Triton ™ X-100]
Time from start of treatment within which MPO is released from the white blood cells to a satisfactory extent ([1]; healthy human whole blood): ≤ 60 min
MPO concentration of whole blood ([1]; treatment time 1 minute): 9.88 ± 0.50 µg/mL
MPO concentration of whole blood ([1]; treatment time 5 minutes): 10.17 ± 0.63 µg/mL
MPO concentration of whole blood ([1]; treatment time 30 minutes): 9.94 ± 0.72 µg/mL
MPO concentration of whole blood ([1]; treatment time 60 minutes): 10.01 ± 0.22 µg/mL
Release amount of MPO in whole blood ([2]; concentration of surfactant 0.05 % (w/v)): 0.104 ± 0.005 Abs. 450 nm
Release amount of MPO in whole blood ([2]; concentration of surfactant 0.10 % (w/v)): 0.161 ± 0.009 Abs. 450 nm
Release amount of MPO in whole blood ([2]; concentration of surfactant 0.20 % (w/v)): 0.202 ± 0.006 Abs. 450 nm
Release amount of MPO in whole blood ([2]; concentration of surfactant 0.30 % (w/v)): 0.228 ± 0.009 Abs. 450 nm
Release amount of MPO in whole blood ([2]; concentration of surfactant 0.50 % (w/v)): 0.262 ± 0.005 Abs. 450 nm
Release amount of MPO in whole blood ([2]; concentration of surfactant 1.00 % (w/v)): 0.245 ± 0.011 Abs. 450 nm
Release amount of MPO in whole blood ([2]; concentration of surfactant 2.00 % (w/v)): 0.216 ± 0.004 Abs. 450 nm
Release amount of MPO in whole blood ([2]; concentration of surfactant 5.00 % (w/v)): 0.228 ± 0.007 Abs. 450 nm
Release amount of MPO in whole blood ([2]; concentration of surfactant 10.00 % (w/v)): 0.227 ± 0.007 Abs. 450 nm
